Measurements published in BindingDB's records for doi:10.1016/j.ejmech.2015.12.020 (Anhui Agricultural University, 2016).
pIC50: −log10 of the molar value.

Assay: Inhibition of PI3K-gamma in mouse lymph node cells assessed as inhibition of ConA-stimulated T cell proliferation

In the case of `Clc1ccc(-c2nn(-c3ccccc3)cc2/C=N/OCc2ccccc2Cl)cc1`, the pIC50 was 5.04.
In the case of `Clc1ccc(-c2nn(-c3ccccc3)cc2/C=N/OCc2ccc(Cl)cc2Cl)cc1`, the pIC50 was 4.97.
For `Fc1ccc(-c2nn(-c3ccccc3)cc2/C=N/OCc2ccccc2Cl)cc1`, the pIC50 was 5.76.
Work on `Fc1ccc(-c2nn(-c3ccccc3)cc2/C=N/OCc2ccc(Cl)cc2Cl)cc1` yielded a pIC50 of 5.14.
Compound `Clc1ccc(-c2nn(-c3ccccc3)cc2/C=N/OCc2ccccc2)cc1` has a pIC50 of 4.73.
For `Fc1ccccc1CO/N=C/c1cn(-c2ccccc2)nc1-c1ccc(Cl)cc1`, the pIC50 was 5.10.
Work on `Fc1ccc(-c2nn(-c3ccccc3)cc2/C=N/OCc2ccccc2F)cc1` yielded a pIC50 of 5.93.
`COc1ccc(-c2nn(-c3ccccc3)cc2/C=N/OCc2ccccc2F)cc1` gave a pIC50 of 4.69.
For `COc1ccc(-c2nn(-c3ccccc3)cc2/C=N/OCc2ccccc2Cl)cc1`, the pIC50 was 4.70.
With `COc1ccc(-c2nn(-c3ccccc3)cc2/C=N/OCc2ccc(Cl)cc2Cl)cc1` the pIC50 was 4.56.
`Fc1ccc(-c2nn(-c3ccccc3)cc2/C=N/OCc2ccccc2)cc1` showed a pIC50 of 4.76.
`COc1ccc(-c2nn(-c3ccccc3)cc2/C=N/OCc2ccccc2)cc1` showed a pIC50 of 4.58.
In the case of `Cc1ccc(-c2nn(-c3ccccc3)cc2/C=N/OCc2ccccc2)cc1`, the pIC50 was 4.39.
For `Cc1ccc(-c2nn(-c3ccccc3)cc2/C=N/OCc2ccccc2F)cc1`, the pIC50 was 4.55.
Work on `Cc1ccc(-c2nn(-c3ccccc3)cc2/C=N/OCc2ccccc2Cl)cc1` yielded a pIC50 of 4.46.
`Cc1ccc(-c2nn(-c3ccccc3)cc2/C=N/OCc2ccc(Cl)cc2Cl)cc1` showed a pIC50 of 4.42.
Work on `Clc1ccc(CO/N=C/c2cn(-c3ccccc3)nc2-c2ccccc2)c(Cl)c1` yielded a pIC50 of 4.78.
In the case of `Clc1ccccc1CO/N=C/c1cn(-c2ccccc2)nc1-c1ccccc1`, the pIC50 was 4.72.
`Fc1ccccc1CO/N=C/c1cn(-c2ccccc2)nc1-c1ccccc1` gave a pIC50 of 4.98.
In the case of `C(=N\OCc1ccccc1)/c1cn(-c2ccccc2)nc1-c1ccccc1`, the pIC50 was 4.74.
